Assays:
Assay in all cases: relative viability (nuclei count vs DMSO), 5 days (fraction); higher = more cells survive
Selisistat + OSI-027 = compound: C1CC(C2=C(C1)C3=C(N2)C=CC(=C3)Cl)C(=O)N [Selisistat] + COc1cccc2cc(-c3nc([C@H]4CC[C@H](C(=O)O)CC4)n4ncnc(N)c34)[nH]c12 [OSI-027] (partner 0.5 µM)
How it was run: (§1)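 After 5 days of treatment, lung cancer cells in 1536-well plates were fixed and stained in a single step (final 0.05% Triton X-100, 1% formaldehyde, 1 ug/ml Hoechst) and their nuclei counted on 4× images. Treatment had been applied by pin tool the day after seeding as one drug alone or as a fixed anchor-drug dose with five library-drug doses (not always all listed) in √10 steps. Relative viability is the nuclei count of treated wells divided by that of vehicle wells, and values are medians of duplicate plates.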

Selisistat + Vorinostat = compound: C1CC(C2=C(C1)C3=C(N2)C=CC(=C3)Cl)C(=O)N [Selisistat] + O=C(CCCCCCC(=O)Nc1ccccc1)NO [Vorinostat] (partner 1 µM)
How it was run: as §1

Serdemetan + Navitoclax = compound: c1ccc2c(CCNc3ccc(Nc4ccncc4)cc3)c[nH]c2c1 [Serdemetan] + CC1(C)CCC(c2ccc(Cl)cc2)=C(CN2CCN(c3ccc(C(=O)NS(=O)(=O)c4ccc(N[C@H](CCN5CCOCC5)CSc5ccccc5)c(S(=O)(=O)C(F)(F)F)c4)cc3)CC2)C1 [Navitoclax] (partner 0.5 µM)
How it was run: as §1

Serdemetan + Linsitinib = compound: c1ccc2c(CCNc3ccc(Nc4ccncc4)cc3)c[nH]c2c1 [Serdemetan] + C[C@]1(O)C[C@@H](c2nc(-c3ccc4ccc(-c5ccccc5)nc4c3)c3c(N)nccn32)C1 [Linsitinib] (partner 1 µM)
How it was run: as §1

Row | Cell Line | relative viability (Selisistat + OSI-027; first compound 0.4 µM) | relative viability (Selisistat + OSI-027; first compound 1.265 µM) | relative viability (Selisistat + OSI-027; first compound 4 µM) | relative viability (Selisistat + OSI-027; first compound 12.65 µM) | relative viability (Selisistat + OSI-027; first compound 40 µM) | relative viability (Selisistat + Vorinostat; first compound 0.4 µM) | relative viability (Selisistat + Vorinostat; first compound 1.265 µM) | relative viability (Selisistat + Vorinostat; first compound 4 µM) | relative viability (Selisistat + Vorinostat; first compound 12.65 µM) | relative viability (Selisistat + Vorinostat; first compound 40 µM) | relative viability (Serdemetan + Navitoclax; first compound 0.04 µM) | relative viability (Serdemetan + Navitoclax; first compound 0.1265 µM) | relative viability (Serdemetan + Navitoclax; first compound 0.4 µM) | relative viability (Serdemetan + Navitoclax; first compound 1.265 µM) | relative viability (Serdemetan + Navitoclax; first compound 4 µM) | relative viability (Serdemetan + Linsitinib; first compound 0.04 µM) | relative viability (Serdemetan + Linsitinib; first compound 0.1265 µM) | relative viability (Serdemetan + Linsitinib; first compound 0.4 µM) | relative viability (Serdemetan + Linsitinib; first compound 1.265 µM) | relative viability (Serdemetan + Linsitinib; first compound 4 µM)
1 | NCI-H596 | 0.793 | 0.692 | 0.505 | 0.698 | 0.732 | 0.698 | 0.609 | 0.521 | 0.75 | 0.773 | 0.967 | 0.922 | 0.741 | 0.465 | 0.34 | 1.14 | 1.04 | 0.789 | 0.623 | 0.541
2 | NCI-H647 | 0.746 | 0.58 | 0.614 | 0.713 | 0.829 | 0.567 | 0.604 | 0.777 | 0.639 | 0.766 | 1.06 | 1.14 | 1.06 | 0.844 | 0.83 | 1.06 | 1.11 | 1.11 | 0.944 | 0.982
3 | NCI-H727 | 0.587 | 0.641 |  | 0.641 | 0.511 | 1.31 | 1.15 | 0.658 | 1.2 | 1.16 | 0.511 | 0.354 | 0.391 | 0.231 | 0.226 | 0.286 | 0.238 | 0.28 | 0.124 | 0.191
4 | NCI-H838 | 0.449 | 0.368 | 0.295 | 0.407 | 0.409 | 0.721 | 0.806 | 0.81 | 0.764 | 0.773 | 1.11 | 1.14 | 1.08 | 1.12 | 1.32 | 0.995 | 1.04 | 0.961 | 0.989 | 1.17
5 | NCI-H1355 | 0.465 | 0.426 | 0.281 | 0.407 | 0.404 | 0.686 | 0.696 | 0.704 | 0.719 | 0.798 | 1.01 | 0.863 | 0.944 | 0.915 | 0.78 | 0.82 | 0.711 | 0.746 | 0.75 | 0.683
6 | NCI-H1395 | 0.691 | 0.675 | 0.53 | 0.502 | 0.622 | 0.827 | 0.671 |  | 0.536 | 0.702 | 0.976 | 1.07 | 1.08 | 0.923 | 0.815 | 0.993 | 1.17 | 1.09 | 0.874 | 0.638
7 | NCI-H1437 | 0.908 | 0.915 | 0.631 | 0.891 | 0.783 | 0.875 | 0.837 | 0.886 | 0.876 | 0.74 | 1.06 | 1.01 | 0.99 | 0.98 | 0.754 | 0.993 | 1.02 | 0.975 | 0.861 | 0.687
8 | NCI-H1651 | 0.605 | 0.744 | 0.705 | 0.674 | 0.764 | 0.625 | 0.672 | 0.552 | 0.638 | 0.622 | 0.826 | 0.808 | 0.557 | 0.256 | 0.226 | 0.822 | 0.724 | 0.509 | 0.355 | 0.268
